Experimental data published in paper PMC11582173, “Synthesis, cytotoxicity, anti-inflammatory, anti-metastatic and anti-oxidant activities of novel chalcones incorporating 2-phenoxy-N-arylacetamide and thiophene moieties: induction of apoptosis in MCF7 and HEP2 cells” (Naunyn-Schmiedeberg's Archives of Pharmacology, 2024).
Where “and” joins values, the source holds several entries; their conditions need not be identical. Equal values may be shown once.

Columns and labels:
Format in all cases: cell-based, human
[1] = test system: Malondialdehyde (MDA); test: ELISA, MDA concentration
Method: (§1) The concentrations of matrix metalloproteinase-2 (MMP2), matrix metalloproteinase-9 (MMP9), Bcl2, BAX, P53, Malondialdehyde (MDA), Glutathione (GSH), caspase 8, caspase 9 and IL-6 were measured quantitatively in 5c treated MCF7 and HEP2 cells using ELISA (Enzyme-Linked Immunosorbent Assay) (Table 4). Gelatinases are a collective word for MMP-2 and MMP-9, where MMP-2 is gelatinase-A and MMP-9 is gelatinase-B. Solid tumor invasion, metastasis, and angiogenesis have long been linked to gelatinases (Das et al. [2021]). […] Bcl2 is a crucial protein that targets apoptosis inhibition. It is regarded as a predictive biomarker or therapeutic target in the diagnosis of cancer due to its broad expression in a variety of cancers (Porter et al. [2009]). […] The pro-apoptotic protein BAX permeabilizes the mitochondrial outer membrane by changing from a cytosolic monomer to a hazardous oligomer triggering the apoptosis process (Fulda and Debatin [2006]). […] P53 transcription factor performs an essential tumor suppressor role by coordinating a wide range of physiological responses, including DNA repair, cell cycle arrest, cellular senescence, cell death, cell differentiation, and metabolism (Liebl and Hofmann [2021]). It was activated in MCF7 and HEP2-treated cells with values (4.28 and 3.109 ng/mL), respectively, compared to their controls (3.44 and 2.06 ng/mL). […]

[2] = test system: IL-6; test: ELISA, IL-6 concentration
Method: as §1

[3] = test system: Bcl2; test: ELISA, Bcl2 concentration
Method: as §1

With `COc1ccc(NC(=O)COc2ccc(C=CC(=O)c3cccs3)cc2)cc1` [Compound 5c, N-(4-Methoxyphenyl)-2-(4-(3-oxo-3-(thiophen-2-yl)prop-1-en-1-yl)phenoxy)acetamide] the MDA concentration ([1]; 5c treated HEP2 cells, untreated 17.44±0.309) was 11.988 nM and 11.988 ± 0.178 nM, the MDA concentration ([1]; 5c treated MCF7 cells, untreated 15.79±0.178) was 8.79 nM and 8.79 ± 0.309 nM and the IL-6 concentration ([2]; 5c treated HEP2 cells, untreated 85.24±1.16) was 54.27 pg/mL and 54.27 ± 5.509 pg/mL. For the same compound, the IL-6 concentration ([2]; 5c treated MCF7 cells, untreated 100.47±0.439) was 74.68 pg/mL and 74.68 ± 0.979 pg/mL, the Bcl2 concentration ([3]; 5c treated HEP2 cells, untreated 2299.4±170.35) was 1809.34 pg/mL and 1809.34 ± 27.45 pg/mL and the Bcl2 concentration ([3]; 5c treated MCF7 cells, untreated 2479.8±17.08) was 2089.96 pg/mL and 2089.96 ± 17.97 pg/mL.
